Assay results published in US11286226B2, “Polycyclic carbogenic molecules and uses thereof as anti-cancer agents” (Northwestern University, priority 2017, dated 2022).
Where two headings read alike, the source gives them in different places.

Tests used:
HT29 (colon) = assay: Cell viability at 1 mM (CellTiter-GLO), HT29; format: cell-based; details: Homo sapiens, read-out: Percent Cell Viability of Treated Cell Lines at 1.0 mM, HT29
Experimental: (§1) Cell lines PC-3, HT29, Hela, and MDA-MB-231 were cultured in RPMI1640 with 10% FBS media. Cell line MDA-MB-231-LM24 was cultured in DMEM with 400 ug/mL geneticin.
(§2) PC-3, HT29, Hela, and MDA-MB-231, and MDA-MB-231-LM24 cells were plated in […] at a density of 20,000 cells per well (based on NCI recommendation for adherent cells) in 90 μL volume of 5% FBS RPMI1640 complete media with 50 μg/mL gentamicin and incubated at 37° C. overnight. Each compound was diluted in RPMI1640 complete media supplemented with 5% FBS and 50 μg/mL of gentamycin, and 10 μL of this solution was added to each well to give a final concentration of 1 mM (1% overall DMSO, N=4 wells).
(§3) Cells treated with Doxorubicin with 1% overall DMSO were used as a positive control, and cells media containing 1% DMSO were used as a negative control.
(§4) 48 hours following treatment, cell proliferation was evaluated using the CellTiter-GLO Luminescent Cell Viability Assay (Promega, Madison, Wis.). Plates were allowed to equilibrate to room temperature for 20 minutes, and 100 μL of CellTiter-GLO reagent was added to all wells. The plates were shaken for 2 minutes and incubated at room temperature for 10 minutes. Luminescence was measured using a Syngergy H1-M microplate reader (BioTek Instruments, Inc.).

PC-3 (prostate) = assay: Cell viability at 1 mM (CellTiter-GLO), PC-3; format: cell-based; details: Homo sapiens, 48 h, read-out: Percent Cell Viability of Treated Cell Lines at 1.0 mM, PC-3
Experimental: as §1, §2, §3, §4

HeLa (cervix) = assay: Cell viability at 1 mM (CellTiter-GLO), HeLa; format: cell-based; details: Homo sapiens, 48 h, read-out: Percent Cell Viability of Treated Cell Lines at 1.0 mM, HeLa
Experimental: as §1, §2, §3, §4

MDA-MB-231 (breast) = assay: Cell viability at 1 mM (CellTiter-GLO), MDA-MB-231; format: cell-based; details: Homo sapiens, read-out: Percent Cell Viability of Treated Cell Lines at 1.0 mM, MDA-MB-231
Experimental: as §1, §2, §3, §4

[1] = tested on: MDA-MB-231-LM24 (metastatic breast); assay: Cell viability at 1 mM (CellTiter-GLO), MDA-MB-231-LM24; format: cell-based; details: Homo sapiens, read-out: Percent Cell Viability of Treated Cell Lines at 1.0 mM, MDA-MB-231-LM24
Experimental: as §1, §2, §3, §4

Plasmodium falciparum = details: reported value (ref. 60); read-out: IC50 against the malaria parasite Plasmodium falciparum; cited from earlier work
normal human cells = details: reported (ref. 60); cited from earlier work
[2] = tested on: PC3 (prostate) cancer cell line; assay: Cell viability assay at three concentrations (FIG. 7), PC3; format: cell-based, human; details: three different concentrations
[3] = tested on: MDA-MB-231 (breast) cancer cell line; assay: Cell viability assay at three concentrations (FIG. 7), MDA-MB-231; format: cell-based, human; details: three different concentrations
[4] = Cell viability at 1 mM (CellTiter-GLO), MCF10A; format: cell-based; details: human, MCF10A cells (normal breast); 1.0 mM in DMSO, 48 h, MCF10A; read-out: Percent Cell Viability of Treated Cell Lines at 1.0 mM, MCF10A
Experimental: (§5) Normal breast cell line MCF10A was cultured in DMEM/F12 with 5% horse serum, 20 ng/mL EGF, […], 100 ng/mL cholera toxin, 10 μg/mL insulin, and 1% pen/strep.
(§6) Normal breast cells (MCF10A) were plated in 96-well black plates at a density of 20,000 cells per well (based on the NCI recommendation for adherent cells) in 90 μL volume of DMEM/F12 with 2% horse serum, 0.5 μg/mL hydrocortisone, 100 ng/mL cholera toxin, 10 μg/mL insulin, and 1% pen/strep, and incubated at 37° C. overnight. The compounds were diluted in the media specified above, and 10 μL of this solution was added to each well to give a final concentration of 1 mM (1% overall DMSO, N=4 wells).
as §3, §4

MCF10A ("normal" breast) = assay: Cell viability at 1 mM (CellTiter-GLO), MCF10A; format: cell-based; details: non-tumorigenic breast epithelial cell line, 1.0 mM
Experimental: as §5, §6, §3, §4

MDA-MB-231-LM24 = assay: IC50 experiment (CellTiter-GLO), MDA-MB-231-LM24; format: cell-based, human
Experimental: as §1
(§7) The compound was diluted in RPMI1640 complete media supplemented with 5% FBS and 50 μg/mL of gentamycin, and 100 μL of this solution was added to each well to give a final concentration of 0.00001-1 mM (N=4 wells). DMSO was held constant at 1%, for all dose points.
as §4, with “Inc.). The IC50 value was determined by Prism GraphPad Software.” for “Inc.).”

MCF10A = assay: IC50 experiment (CellTiter-GLO), MCF10A; format: cell-based; details: Homo sapiens, MCF-10A; 48 h, 1% DMSO; read-out: IC50 against MCF10A
Experimental: as §5, §7
as §4, with “Inc.). The IC50 value was determined by Prism GraphPad Software.” for “Inc.).”

[5] = HT-29, 1.0 mM in DMSO, 48 h, HT29
[6] = 1.0 mM in DMSO, 48 h, MDA-MB-231
[7] = 1.0 mM in DMSO, 48 h, MDA-MB-231-LM24

Row | SMILES | viability at 1000 µM (HT29 (colon); [5]) [%] | viability at 1000 µM (PC-3 (prostate); 1.0 mM in DMSO, PC-3) [%] | viability at 1000 µM (HeLa (cervix); 1.0 mM in DMSO) [%] | viability at 1000 µM (MDA-MB-231 (breast); [6]) [%] | viability at 1000 µM [1, 7] [%] | viability at 48 h, 1 mM [4] [%] | also measured
1 | CC1=CC[C@@H]2C(C)=C[C@@]3(C)CC=CC(=O)[C@@H]3[C@H]2C1=O [Compound 20] | 31 | 11 | 2 | 43 | 10 | – | –
2 | O=C1C=CC[C@H]2CC=C[C@@H]3CC=CC(=O)[C@H]3[C@H]12 [Compound 25] | 0 | 0 | 21 | 6 | 1 | – | –
3 | C[C@@]12C=CC(=O)C[C@H]1C(=O)C=CC2 [Compound 29] | 8 | 2 | 22 | 62 | 26 | – | –
4 | CC1=CC[C@H]2C(C)=C[C@@H]3CC=CC(=O)[C@@]3(C)[C@@H]2C1=O [Compound 19] | 1 | 1 | 0 | 0 | 0 | – | –
5 | CC1=CC[C@H]2C=C[C@@H]3CC=C(C)C(=O)[C@H]3[C@@H]2C1=O [Compound 14] | 1 | 72 | 46 | 69 | 67 | – | –
6 | CC1=CC(=O)[C@@H]2[C@H]3C(=O)C=C(C)C[C@@H]3C=C[C@H]2C1 [Compound 15] | 66 | 63 | 40 | 11 | 54 | – | –
7 | [C-]#[N+][C@]1(C)[C@H](C)C[C@@H]2C[C@H](C)[C@H]3CC[C@](C)([N+]#[C-])[C@H]4CC[C@H]1[C@@H]2[C@H]34 [Compound 39, (+)-7,20-diisocyanoadociane] | – | – | – | – | – | – | IC50 (Plasmodium falciparum): 0.0047 µM; activity against normal human cells (normal human cells): inert
8 | CC1=C[C@@H]2[C@H](C(=O)CCC2(C)C)[C@H]2C(=O)[C@@H](C)CC[C@H]12 [Compound 36] | 64 | 77 | 41 | 53 | 55 | – | –
9 | CC1=CC[C@H]2C=C(C)[C@@H]3CC=C(C)C(=O)[C@H]3[C@@H]2C1=O [Compound 18] | – | – | – | – | – | – | activity in cell viability assay, PC3 [2]: promising activity; activity in cell viability assay, MDA-MB-231 [3]: promising activity
10 | O=C1C=CC[C@@H]2[C@@H]1[C@@H]1C(=O)C=CC[C@H]1C1O[C@H]12 (stereo partly shown) [Compound 31] | 0 | 0 | 2 | 26 | 3 | 5 | activity against MCF10A cell line (MCF10A ("normal" breast)): highly active
11 | C[C@]12CC(=O)C=C[C@@H]1CC=CC2=O [Compound 28] | 0 | 1 | 0 | 2 | 16 | – | –
12 | CC1=CC[C@@H]2C(C)=C[C@@H]3[C@H](C(=O)C=CC3(C)C)[C@H]2C1=O [Compound 21] | – | – | – | – | – | 4 | viability at 1000 µM (HT29 (colon); HT-29, 48 h): 0%; viability at 1000 µM (PC-3 (prostate)): 0%; viability at 1000 µM (HeLa (cervix)): 0%; viability at 1000 µM (MDA-MB-231 (breast); MDA-MB-231, 48 h): 0%; viability at 1000 µM ([1]; MDA-MB-231-LM24, 48 h): 0%; activity against MCF10A cell line (MCF10A ("normal" breast)): highly active
13 | CC1=CC[C@H]2C(C)=CCC3(CCC=CC3=O)[C@@H]2C1=O (stereo partly shown) [Compound 24] | 0 | 0 | 3 | 1 | 0 | 4 | activity against MCF10A cell line (MCF10A ("normal" breast)): highly active; activity in cell viability assay, PC3 [2]: promising activity; activity in cell viability assay, MDA-MB-231 [3]: promising activity
14 | O=C1CCC[C@H]2CC[C@@H]3CCCC(=O)[C@H]3[C@H]12 [Compound 33] | 51 | 77 | 13 | 75 | 60 | – | –
15 | O=C1C2O[C@@H]2C[C@H]2C=C[C@@H]3CC4O[C@H]4C(=O)[C@H]3[C@H]12 (stereo partly shown) [Compound 32] | 1 | 1 | 0 | 25 | 0 | 70 | IC50 (MDA-MB-231-LM24; Homo sapiens, MDA-MB-231-LM24, 48 h, 1% DMSO, read-out: IC50 against MDA-MB-231-LM24): 200 µM; selectivity between cancer versus "normal" cell lines (MDA-MB-231-LM24; MCF10A IC50 versus MDA-MB-231-LM24 IC50): 15 times; IC50 (MCF10A): 3100 µM
16 | O=C1C=CC[C@H]2C=C[C@@H]3CC=CC(=O)[C@H]3[C@H]12 [Compound 13] | 2 | 0 | 4 | 26 | 2 | 1 | activity against MCF10A cell line (MCF10A ("normal" breast)): highly active
